Reference: ChEMBL document CHEMBL2321647 (ACS Med Chem Lett, 2013)

How the values were obtained:
Histone deacetylase 9 = Histone deacetylase 9 (Homo sapiens, UniProt Q9UKV0); assay: Inhibition of C-terminal His-tagged human recombinant HDAC9 (amino acids 604- 1066) expressed in baculovirus expression system using fluorogenic acetylated peptide as substrate preincubated with enzyme for 10 mins prior to substrate addition measured after 60 mins by fluorescence analysis
Histone deacetylase 3 = Histone deacetylase 3 (Homo sapiens, UniProt O15379); assay: Inhibition of C-terminal His-tagged full length human recombinant HDAC3 co-expressed with NcoR2 in baculovirus expression system using fluorogenic acetylated peptide as substrate preincubated with enzyme for 10 mins prior to substrate addition measured after 60 mins by fluorescence analysis
Chain of Histone deacetylase 3 (O15379 whole entry): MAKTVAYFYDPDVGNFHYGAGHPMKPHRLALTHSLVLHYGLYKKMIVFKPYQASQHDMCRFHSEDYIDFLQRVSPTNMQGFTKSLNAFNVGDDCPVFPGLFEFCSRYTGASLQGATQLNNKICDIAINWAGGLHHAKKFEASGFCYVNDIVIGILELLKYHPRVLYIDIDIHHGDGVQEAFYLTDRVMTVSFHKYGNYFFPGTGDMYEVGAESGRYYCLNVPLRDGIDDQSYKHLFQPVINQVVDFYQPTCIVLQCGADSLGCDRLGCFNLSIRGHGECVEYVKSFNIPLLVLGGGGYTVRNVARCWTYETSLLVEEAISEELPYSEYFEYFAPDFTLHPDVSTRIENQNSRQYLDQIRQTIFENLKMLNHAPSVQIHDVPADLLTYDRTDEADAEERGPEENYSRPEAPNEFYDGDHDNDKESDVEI

Histone deacetylase 2 = Histone deacetylase 2 (Homo sapiens, UniProt Q92769); assay: (§1) Inhibition of C-terminal His-tagged full length human recombinant HDAC2 expressed in baculovirus expression system using fluorogenic acetylated peptide as substrate preincubated with enzyme for 10 mins prior to substrate addition measured after 60 mins by fluorescence analysis
Chain of Histone deacetylase 2 (Q92769 whole entry): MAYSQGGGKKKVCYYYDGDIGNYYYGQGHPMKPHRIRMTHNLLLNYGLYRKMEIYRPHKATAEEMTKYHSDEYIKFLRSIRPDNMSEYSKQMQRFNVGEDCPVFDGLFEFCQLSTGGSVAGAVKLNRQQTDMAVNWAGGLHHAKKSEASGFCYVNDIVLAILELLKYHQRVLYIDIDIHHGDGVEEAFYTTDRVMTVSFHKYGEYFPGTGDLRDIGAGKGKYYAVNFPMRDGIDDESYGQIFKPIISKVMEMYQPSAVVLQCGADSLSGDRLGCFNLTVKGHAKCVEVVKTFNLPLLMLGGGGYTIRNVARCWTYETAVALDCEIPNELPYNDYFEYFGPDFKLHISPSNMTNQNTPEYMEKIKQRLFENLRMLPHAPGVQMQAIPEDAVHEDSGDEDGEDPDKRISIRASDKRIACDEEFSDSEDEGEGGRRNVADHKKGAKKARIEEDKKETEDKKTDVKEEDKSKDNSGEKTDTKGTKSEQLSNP

Histone deacetylase 1 = Histone deacetylase 1 (Homo sapiens, UniProt Q13547); assay: as §1, with “His-tagged and C-terminal FLAG-tagged” for “His-tagged”, “HDAC1” for “HDAC2”
Chain of Histone deacetylase 1 (Q13547 whole entry): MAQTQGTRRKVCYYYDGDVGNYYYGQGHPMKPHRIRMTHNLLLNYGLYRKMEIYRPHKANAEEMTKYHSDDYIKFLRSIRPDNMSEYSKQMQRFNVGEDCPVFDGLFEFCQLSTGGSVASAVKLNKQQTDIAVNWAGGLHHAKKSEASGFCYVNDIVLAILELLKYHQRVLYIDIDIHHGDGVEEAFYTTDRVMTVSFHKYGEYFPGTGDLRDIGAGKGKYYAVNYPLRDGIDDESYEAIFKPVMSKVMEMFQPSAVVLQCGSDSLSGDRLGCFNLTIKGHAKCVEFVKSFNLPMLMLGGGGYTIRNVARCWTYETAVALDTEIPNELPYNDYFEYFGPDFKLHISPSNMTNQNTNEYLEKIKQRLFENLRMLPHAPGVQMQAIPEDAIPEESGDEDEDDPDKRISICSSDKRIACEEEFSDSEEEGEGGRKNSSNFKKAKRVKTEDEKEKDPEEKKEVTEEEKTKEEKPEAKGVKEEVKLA

Chain of Histone deacetylase 9 (Q9UKV0 whole entry, the tested form may be a part): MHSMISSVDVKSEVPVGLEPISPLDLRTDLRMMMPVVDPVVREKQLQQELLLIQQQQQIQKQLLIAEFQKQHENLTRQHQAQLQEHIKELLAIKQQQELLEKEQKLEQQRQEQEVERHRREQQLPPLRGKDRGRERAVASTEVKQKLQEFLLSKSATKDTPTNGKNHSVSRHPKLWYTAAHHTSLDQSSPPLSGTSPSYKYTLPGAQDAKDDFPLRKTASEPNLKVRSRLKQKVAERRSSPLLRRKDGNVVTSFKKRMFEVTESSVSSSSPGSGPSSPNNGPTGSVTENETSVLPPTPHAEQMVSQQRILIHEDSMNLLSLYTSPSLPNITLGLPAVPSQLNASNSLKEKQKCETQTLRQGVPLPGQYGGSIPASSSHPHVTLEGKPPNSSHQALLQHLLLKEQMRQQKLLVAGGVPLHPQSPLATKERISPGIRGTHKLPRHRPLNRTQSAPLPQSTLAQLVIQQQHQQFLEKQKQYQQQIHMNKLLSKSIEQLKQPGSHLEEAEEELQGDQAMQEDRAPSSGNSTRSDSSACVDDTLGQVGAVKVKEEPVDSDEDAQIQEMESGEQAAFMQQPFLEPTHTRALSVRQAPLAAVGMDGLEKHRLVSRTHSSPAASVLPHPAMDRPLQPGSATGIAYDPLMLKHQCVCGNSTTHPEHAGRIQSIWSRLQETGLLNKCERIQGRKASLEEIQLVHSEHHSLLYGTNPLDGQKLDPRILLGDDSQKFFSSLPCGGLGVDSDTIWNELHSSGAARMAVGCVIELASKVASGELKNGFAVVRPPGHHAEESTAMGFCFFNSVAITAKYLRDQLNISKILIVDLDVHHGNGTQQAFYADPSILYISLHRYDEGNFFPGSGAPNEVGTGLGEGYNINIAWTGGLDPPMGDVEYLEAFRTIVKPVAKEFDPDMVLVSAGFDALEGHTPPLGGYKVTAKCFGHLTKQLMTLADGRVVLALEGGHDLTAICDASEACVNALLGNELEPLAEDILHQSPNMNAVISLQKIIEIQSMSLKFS

IC50 (Histone deacetylase 9) [µM]	IC50 (Histone deacetylase 3) [µM]	IC50 (Histone deacetylase 2) [µM]	IC50 (Histone deacetylase 1) [µM]	Structure (SMILES)
> 100	3.99	30.8	7.42	CCCCCCCC(=O)SCC/C=C/[C@@H]1CC(=O)NCc2nc(cs2)-c2nnn(n2)CC(=O)N[C@@H](C(C)C)C(=O)O1
32	0.885	3.88	2.35	CC(C)[C@@H]1NC(=O)Cn2cc(nn2)-c2csc(n2)CNC(=O)C[C@@H](/C=C/CCS)OC1=O

Continued, compound first:

Structure (SMILES)	IC50 (Histone deacetylase 9) [µM]	IC50 (Histone deacetylase 3) [µM]	IC50 (Histone deacetylase 2) [µM]	IC50 (Histone deacetylase 1) [µM]
CC(C)[C@@H]1NC(=O)Cn2nnc(n2)-c2csc(n2)CNC(=O)C[C@@H](/C=C/CCS)OC1=O	34.6	0.031	0.224	0.1
CCCCCCCC(=O)SCC/C=C/[C@@H]1CC(=O)NCc2nc(cs2)-c2nnnn2CC(=O)N[C@@H](C(C)C)C(=O)O1	18.4	10.4	25.1	
CC(C)[C@@H]1NC(=O)Cn2nnnc2-c2csc(n2)CNC(=O)C[C@@H](/C=C/CCS)OC1=O	16.2	0.649	3.27	1.67
CCCCCCCC(=O)SCC/C=C/[C@@H]1CC(=O)NCc2nc(cs2)-c2cn(nn2)CC(=O)N[C@@H](C(C)C)C(=O)O1	63.2	14	32.1	17.6
CCCCCCCC(=O)SCC/C=C/[C@@H]1CC(=O)NCc2nc(cs2)C2=N[C@@](C)(CS2)C(=O)N[C@@H](C(C)C)C(=O)O1 [LARGAZOLE]	8.33		1.72	0.146
